Assay results published in US5902812A, “Pharmaceutical piperazine compounds” (Xenova Limited, priority 1994, dated 1999).
Where a name gives a salt, the structure may show the parent alone. Read-outs that look alike come from different tables or passages of the source. Blank lines part the entries; values can stand above or below the molecule they belong to.

Molecular target: PAI-1 (Homo sapiens, UniProt P05121)
Test: biochemical
[1] = 100 μM, read-out: Degree of inhibition in PAI chromogenic substrate assay
[2] = 6.25 μM, read-out: Degree of inhibition in PAI chromogenic substrate assay
[3] = 12.5 μM, read-out: Degree of inhibition in PAI chromogenic substrate assay
[4] = 25 μM, read-out: Degree of inhibition in PAI chromogenic substrate assay
[5] = 50 μM, read-out: Degree of inhibition in PAI chromogenic substrate assay
[6] = PAI chromogenic substrate assay, read-out: IC50
[7] = 20 μM (third part of Table 1), read-out: Degree of inhibition in PAI chromogenic substrate assay
[8] = 100 μM (third part of Table 1), read-out: Degree of inhibition in PAI chromogenic substrate assay

Sequence of PAI-1 (P05121 24-402): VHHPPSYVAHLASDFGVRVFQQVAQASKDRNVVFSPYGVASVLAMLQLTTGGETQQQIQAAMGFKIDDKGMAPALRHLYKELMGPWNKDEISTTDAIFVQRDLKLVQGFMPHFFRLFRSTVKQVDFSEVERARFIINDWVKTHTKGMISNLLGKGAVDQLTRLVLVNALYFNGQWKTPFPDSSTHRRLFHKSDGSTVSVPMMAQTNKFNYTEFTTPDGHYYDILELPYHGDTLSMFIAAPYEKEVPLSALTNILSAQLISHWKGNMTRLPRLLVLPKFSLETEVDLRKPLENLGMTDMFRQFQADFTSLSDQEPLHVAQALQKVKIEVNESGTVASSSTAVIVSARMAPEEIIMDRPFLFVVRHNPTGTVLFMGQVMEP
Procedure: In this assay, a compound is incubated with PAI-1 prior to addition to the tPA assay system. Inhibition of PAI-1 results in the production of plasmin from plasminogen. In turn, plasmin cleaves the chromogenic substrate S2251 (Kabi Vitrum) producing pNA (p-nitroaniline) which is detected spectrophotometrically at 405 nm (K. Nilsson et al, Fibrinolysis (1987) 1, 163-168).
Compounds of formula (A) were tested in a PAI chromogenic substrate assay. In the assay (K.Nilsson, Fibrinolysis (1987) 1, 163-168) each compound was incubated with PAI-1 prior to addition to the tPA assay system. […] In turn, the plasmin cleaved the chromogenic substrate S2251 (Kabi-Vitrum) producing pNA (p-nitroaniline) which was detected spectrophotometrically at 405 nm.

Structure (SMILES): CN(C)CCOc1ccc(/C=c2\[nH]c(=O)/c(=C/c3ccccc3)[nH]c2=O)c(Cl)c1.Cl [Compound 1960, (3Z,6Z)-6-Benzylidene-3-(2-chloro-4-(2-dimethylaminoethoxy)benzylidene)-2,5-piperazinedione, hydrochloride]
Degree of inhibition in PAI chromogenic substrate assay (6.25 μM): 56%
Degree of inhibition in PAI chromogenic substrate assay (12.5 μM): 63%
Degree of inhibition in PAI chromogenic substrate assay (25 μM): 67%
Degree of inhibition in PAI chromogenic substrate assay (50 μM): 64%
inhibition at 100 µM [1]: 32%

Structure (SMILES): CN(C)CCOc1ccc(/C=c2\[nH]c(=O)/c(=C/c3ccccc3)[nH]c2=O)cc1 [Compound 1961, (3Z,6Z)-3-Benzylidene-6-(4-(2-dimethylaminoethoxy)benzylidene)-2,5-piperazinedione]
inhibition at 3.75 µM (3.75 μM, read-out: Degree of inhibition in PAI chromogenic substrate assay): 1%
inhibition at 7.5 µM (7.5 μM, read-out: Degree of inhibition in PAI chromogenic substrate assay): 11%
inhibition at 15 µM (15 μM, read-out: Degree of inhibition in PAI chromogenic substrate assay): 41%
inhibition at 30 µM (30 μM, read-out: Degree of inhibition in PAI chromogenic substrate assay): 49%
inhibition at 60 µM (60 μM, read-out: Degree of inhibition in PAI chromogenic substrate assay): 48%

Structure (SMILES): CN(C)CCOc1cccc(/C=c2\[nH]c(=O)/c(=C/c3cccc(OCCN(C)C)c3)[nH]c2=O)c1 [Compound 1947, (3Z,6Z)-3,6-Di-(3-(2-dimethylaminoethoxy)benzylidene)-2,5-piperazinedione]
inhibition at 6.25 µM [2]: 0%
inhibition at 12.5 µM [3]: 1%
inhibition at 25 µM [4]: 1%
inhibition at 50 µM [5]: 1%
inhibition at 100 µM [1]: 1%

Structure (SMILES): CN(C)CCSCc1ccc(/C=c2\[nH]c(=O)/c(=C/c3ccccc3Br)[nH]c2=O)cc1 [Compound 5080.HCl, (3Z,6Z)-3-(2-Bromobenzylidene)-6-(4-(2-Dimethylaminoethylthiomethyl)benzylidene)-2,5-piperazinedione]
inhibition at 20 µM [7]: 10%
inhibition at 50 µM (50 μM (third part of Table 1), read-out: Degree of inhibition in PAI chromogenic substrate assay): 48%
inhibition at 100 µM [8]: 62%

Structure (SMILES): CN(C)CCCOc1ccc(/C=c2\[nH]c(=O)/c(=C/c3cc([N+](=O)[O-])cc([N+](=O)[O-])c3)[nH]c2=O)cc1 [Compound 5378, (3Z,6Z)-6-(4-(3-Dimethylaminopropoxy)benzylidene)-3-(3,5-dinitrobenzylidene)-2,5-piperazinedione]
IC50 (IC50, PAI chromogenic substrate assay): 20 µM
inhibition at 20 µM (read-out: Degree of inhibition in PAI chromogenic substrate assay): 50%

Structure (SMILES): CN(C)CCCOc1ccc(/C=c2\[nH]c(=O)/c(=C/c3ccccc3[N+](=O)[O-])[nH]c2=O)cc1 [Compound 5208, (3Z,6Z)-6-(4-(3-Dimethylaminopropoxy)benzylidene)-3-(2-nitrobenzylidene)-2,5-piperazinedione]
inhibition at 20 µM [7]: 10%
inhibition at 100 µM [8]: 32%

Structure (SMILES): COc1ccc(/C=c2\[nH]c(=O)/c(=C/c3ccc(OC(=O)CC(C)(C)C)cc3)[nH]c2=O)cc1 [Compound 1885, (3Z,6Z)-3-(4-(3,3-dimethylbutanoyloxy)benzylidene)-6-(4-methoxybenzylidene)-2,5-piperazinedione]
inhibition at 6.25 µM [2]: 0%
inhibition at 12.5 µM [3]: 0%
inhibition at 25 µM [4]: 2%
inhibition at 50 µM [5]: 31%
inhibition at 100 µM [1]: 54%

Structure (SMILES): CN(C)CCOc1ccc(/C=c2\[nH]c(=O)/c(=C/c3ccccc3)[nH]c2=O)c(OCCN(C)C)c1 [Compound 1984]
Degree of inhibition in PAI chromogenic substrate assay (12.5 μM): 0%
Degree of inhibition in PAI chromogenic substrate assay (25 μM): 0%
Degree of inhibition in PAI chromogenic substrate assay (50 μM): 0%
Degree of inhibition in PAI chromogenic substrate assay (100 μM): 17%

Structure (SMILES): CN(C)CCCOc1ccc(/C=c2\[nH]c(=O)/c(=C/c3ccccc3)[nH]c2=O)cc1 [Compound 1852, (3Z,6Z)-6-Benzylidene-3-(4-(3-dimethylaminopropoxy)benzylidene)-2,5-piperazinedione]
inhibition at 6.25 µM [2]: 4%
inhibition at 12.5 µM [3]: 67%
inhibition at 25 µM [4]: 74%
inhibition at 50 µM [5]: 71%
inhibition at 100 µM [1]: 72%

Structure (SMILES): CN(C)CCOc1ccc(/C=c2\[nH]c(=O)/c(=C/c3ccccc3)[nH]c2=O)cc1 [Compound 1954, (3Z,6Z)-6-Benzylidene-3-(4-(2-dimethylaminoethoxy)benzylidene)-2,5-piperazinedione]
Degree of inhibition in PAI chromogenic substrate assay (6.25 μM): 37%
Degree of inhibition in PAI chromogenic substrate assay (12.5 μM): 57%
Degree of inhibition in PAI chromogenic substrate assay (25 μM): 67%
Degree of inhibition in PAI chromogenic substrate assay (50 μM): 43%
Degree of inhibition in PAI chromogenic substrate assay (100 μM): 16%

Structure (SMILES): CN(C)Cc1ccc(/C=c2\[nH]c(=O)/c(=C/c3ccccc3)[nH]c2=O)cc1 [Compound 1913, (3Z,6Z)-3-Benzylidene-6-(4-dimethylaminomethylbenzylidene)-2,5-piperazinedione]
inhibition at 6.25 µM [2]: 15%
inhibition at 12.5 µM [3]: 14%
inhibition at 25 µM [4]: 19%
inhibition at 50 µM [5]: 54%
inhibition at 100 µM [1]: 71%

Structure (SMILES): CN(C)CCOc1ccc(/C=c2\[nH]c(=O)/c(=C/c3ccccc3)[nH]c2=O)c(Cl)c1 [Compound 1951, (3Z,6Z)-3-Benzylidene-6-(2-chloro-4-(2-dimethylaminoethoxy)benzylidene)-2,5-piperazinedione]
Degree of inhibition in PAI chromogenic substrate assay (6.25 μM): 0%
Degree of inhibition in PAI chromogenic substrate assay (12.5 μM): 1%
Degree of inhibition in PAI chromogenic substrate assay (25 μM): 2%
Degree of inhibition in PAI chromogenic substrate assay (50 μM): 23%
Degree of inhibition in PAI chromogenic substrate assay (100 μM): 43%

Further lines, results first:

IC50 [6]: 15 µM
Structure (SMILES): CN(C)CCCOc1ccc(/C=c2\[nH]c(=O)/c(=C/c3cc(Cl)cc(Cl)c3)[nH]c2=O)cc1 [Compound 5380, (3Z,6Z)-3-(3,5-Dichlorobenzylidene)-6-(4-(3-dimethylaminopropoxy)benzylidene)-2,5-piperazinedione]

IC50 [6]: 1.4 µM
Structure (SMILES): CN(C)CCCOc1ccc(/C=c2\[nH]c(=O)/c(=C/c3cccc([N+](=O)[O-])c3)[nH]c2=O)cc1 [Compound 5209, (3Z,6Z)-6-(4-(3-Dimethylaminopropoxy)benzylidene)-3-(3-nitrobenzylidene)-2,5-piperazinedione]

inhibition at 20 µM [7]: 15%
Structure (SMILES): CN(C)CCCOc1ccc(/C=c2\[nH]c(=O)/c(=C/c3ccc(C(=O)NCCCc4ccccc4)cc3)[nH]c2=O)cc1 [Compound 5346, N-(3-Phenylpropyl)-4-((3Z,6Z)-6-(4-(3-Dimethylaminopropoxy)benzylidene)-2,5-dioxo-3-piperazinylidene)methylbenzamide]

IC50 [6]: 3.3 µM
Structure (SMILES): CN(C)CCCOc1ccc(/C=c2\[nH]c(=O)/c(=C/c3ccc(F)cc3)[nH]c2=O)cc1 [Compound 5365.HCl, (3Z,6Z)-3-(4-(3-Dimethylaminopropoxy)benzylidene)-6-(4-fluorobenzylidene)-2,5-piperazinedione]

inhibition at 20 µM [7]: 65%
inhibition at 100 µM [8]: 68%
IC50 [6]: 7 µM
Structure (SMILES): CN(C)CCCOc1ccc(/C=c2\[nH]c(=O)/c(=C/c3ccc(C(F)(F)F)cc3)[nH]c2=O)cc1 [Compound 5239, (3Z,6Z)-3-(4-(3-Dimethylaminopropoxy)benzylidene)-6-(4-trifluoromethylbenzylidene)-2,5-piperazinedione]

IC50 [6]: 6 µM
Structure (SMILES): Cc1ccc(/C=c2\[nH]c(=O)/c(=C/c3ccc(OCCCN(C)C)cc3)[nH]c2=O)cc1 [Compound 5235, (3Z,6Z)-3-(4-(3-Dimethylaminopropoxy)benzylidene)-6-(4-methylbenzylidene)-2,5-piperazinedione]

inhibition at 20 µM [7]: 15%
Structure (SMILES): CN(C)CCCOc1ccc(/C=c2\[nH]c(=O)/c(=C/c3ccc(C#N)cc3)[nH]c2=O)cc1 [Compound 5348]

IC50 [6]: 1.1 µM
Structure (SMILES): CN(C)CCCOc1ccc(/C=c2\[nH]c(=O)/c(=C/c3ccc([N+](=O)[O-])cc3)[nH]c2=O)cc1 [Compound 5228, (3Z,6Z)-3-(4-(3-dimethylaminopropoxy)benzylidene)-6-(4-nitrobenzylidene)-2,5-piperazinedione]

inhibition at 20 µM [7]: 47%
inhibition at 100 µM [8]: 50%
IC50 [6]: 2.5 µM
Structure (SMILES): CN(C)CCCOc1ccc(/C=c2\[nH]c(=O)/c(=C/c3ccc(Cl)cc3)[nH]c2=O)cc1 [Compound 5233]

inhibition at 20 µM [7]: 30%
inhibition at 100 µM [8]: 9%
IC50 [6]: 0.75 µM
Structure (SMILES): CN(C)CCCOc1ccc(/C=c2\[nH]c(=O)/c(=C/c3ccc([N+](=O)[O-])cc3)[nH]c2=O)cc1 [Compound 5230, (3Z,6Z)-3-(4-(3-dimethylaminopropoxy)benzylidene)-6-(4-nitrobenzylidene)-2,5-piperazinedione]

IC50 [6]: 67 µM
Structure (SMILES): CN(C)CCCOc1ccc(/C=c2\[nH]c(=O)/c(=C/c3ccccc3[N+](=O)[O-])[nH]c2=O)cc1 [Compound 5210, (3Z,6Z)-6-(4-(3-Dimethylaminopropoxy)benzylidene)-3-(2-nitrobenzylidene)-2,5-piperazinedione]

inhibition at 20 µM [7]: 10%
inhibition at 100 µM [8]: 65%
IC50 [6]: 100 µM
Structure (SMILES): CC(=O)Nc1cccc(/C=c2\[nH]c(=O)/c(=C/c3ccc(OCCCN(C)C)cc3)[nH]c2=O)c1 [Compound 5256, (3Z,6Z)-3-(3-Acetamidobenzylidene)-6-(4-(3-dimethylaminopropoxy)benzylidene)-2,5-piperazinedione]

IC50 [6]: 2 µM
Structure (SMILES): CSc1ccc(/C=c2\[nH]c(=O)/c(=C/c3ccc(OCCCN(C)C)cc3)[nH]c2=O)cc1 [Compound 5385, (3Z,6Z)-3-(4-(3-Dimethylaminopropoxy)benzylidene)-6-(4-methylthiobenzylidene)-2,5-piperazinedione]

inhibition at 100 µM [8]: 10%
Structure (SMILES): COc1ccc(/C=c2\[nH]c(=O)/c(=C/c3ccc(OCCCN(C)C)cc3)[nH]c2=O)cc1 [Compound 5234, (3Z,6Z)-3-(4-(3-Dimethylaminopropoxy)benzylidene)-6-(4-methoxybenzylidene)-2,5-piperazinedione]

inhibition at 20 µM [7]: 39%
Structure (SMILES): CN(C)CCCOc1ccc(/C=c2\[nH]c(=O)/c(=C/c3ccc(C(=O)NCCc4ccccc4)cc3)[nH]c2=O)cc1 [Compound 5345, N-Phenethyl-4-((3Z,6Z)-6-(4-(3-Dimethylaminopropoxy)benzylidene)-2,5-dioxo-3-piperazinylidene)methylbenzamide]
